ChEMBL document CHEMBL4145493, “Tetrahydroacridine derivatives with dichloronicotinic acid moiety as attractive, multipotent agents for Alzheimer's disease treatment” (Eur J Med Chem, 2018)

What was measured:
Acetylcholinesterase = Acetylcholinesterase (Electrophorus electricus, UniProt O42275); assay: Inhibition of electric eel AChE using acetylthiocholine iodide as substrate after 10 mins by Ellman's method
Cholinesterase = Cholinesterase (Equus caballus, UniProt P81908); assay: Inhibition of equine serum BuChE using acetylthiocholine iodide as substrate after 8 mins by Ellman's method
BuChE (equine serum) = assay: Selectivity index, ratio of IC50 for human A549 cells to IC50 for equine serum BuChE; type: toxicity; details: read-out: Ratio IC50
[1] = biological target: Amyloid-beta precursor protein (Homo sapiens) (UniProt P05067); assay: Inhibition of self-induced amyloid beta (1 to 42) (unknown origin) aggregation at 10 uM measured after 24 hrs by ThT fluorescence assay relative to control
[2] = biological target: Amyloid-beta precursor protein (Homo sapiens) (UniProt P05067); assay: Inhibition of self-induced amyloid beta (1 to 42) (unknown origin) aggregation at 25 uM measured after 24 hrs by ThT fluorescence assay relative to control
[3] = biological target: Amyloid-beta precursor protein (Homo sapiens) (UniProt P05067); assay: Inhibition of self-induced amyloid beta (1 to 42) (unknown origin) aggregation at 50 uM measured after 24 hrs by ThT fluorescence assay relative to control
[4] = Cytotoxicity against human A549 cells assessed as cell viability at 0.9 uM after 48 hrs by MTT assay relative to control; type: cell-based; details: read-out: Activity
A549 = assay: Cytotoxicity against human A549 cells assessed as cell viability after 48 hrs by MTT assay; type: cell-based; details: A549, 48 h
Hyaluronidase = biological target: T1, Hyaluronidase (Bos taurus, UniProt Q8SQG8+Q5E985); assay: Inhibition of bovine testes hyaluronidase using hyaluronic acid as substrate preincubated for 10 mins in dark followed by incubation with substrate for 45 mins and subsequent addition of serum albumin measured after 10 mins by turbidimetric method; type: protein assay
T1 sequence (Q8SQG8 whole entry): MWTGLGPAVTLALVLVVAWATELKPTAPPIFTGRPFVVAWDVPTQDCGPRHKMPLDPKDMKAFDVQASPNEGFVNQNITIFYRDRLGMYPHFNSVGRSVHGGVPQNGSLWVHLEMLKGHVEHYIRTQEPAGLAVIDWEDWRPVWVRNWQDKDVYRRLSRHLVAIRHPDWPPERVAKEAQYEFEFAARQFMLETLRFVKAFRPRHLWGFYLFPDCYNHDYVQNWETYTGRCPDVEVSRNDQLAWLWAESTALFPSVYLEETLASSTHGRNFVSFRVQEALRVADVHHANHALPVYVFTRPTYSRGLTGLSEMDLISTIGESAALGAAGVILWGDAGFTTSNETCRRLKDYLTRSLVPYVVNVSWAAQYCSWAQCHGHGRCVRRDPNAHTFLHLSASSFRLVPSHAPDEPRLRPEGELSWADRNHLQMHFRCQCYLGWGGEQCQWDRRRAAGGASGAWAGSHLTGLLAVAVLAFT
T1 sequence (Q5E985 whole entry): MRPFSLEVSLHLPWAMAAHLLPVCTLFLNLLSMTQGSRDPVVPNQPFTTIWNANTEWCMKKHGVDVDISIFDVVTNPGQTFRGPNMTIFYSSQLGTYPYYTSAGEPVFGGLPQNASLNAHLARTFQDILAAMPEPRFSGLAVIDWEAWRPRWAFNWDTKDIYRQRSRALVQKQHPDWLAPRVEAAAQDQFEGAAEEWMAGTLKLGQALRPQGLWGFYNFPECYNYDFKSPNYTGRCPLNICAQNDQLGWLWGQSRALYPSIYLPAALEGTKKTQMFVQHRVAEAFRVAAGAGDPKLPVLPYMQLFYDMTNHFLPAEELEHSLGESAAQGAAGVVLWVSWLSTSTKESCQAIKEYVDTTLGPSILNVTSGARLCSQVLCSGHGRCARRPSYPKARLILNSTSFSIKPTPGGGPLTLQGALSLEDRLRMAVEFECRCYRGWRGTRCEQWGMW

AChE (electric eel) = assay: Selectivity index, ratio of IC50 for human A549 cells to IC50 for electric eel AChE; type: toxicity; details: read-out: Ratio IC50
[5] = Cytotoxicity against human A549 cells assessed as cell viability at 2.3 uM after 48 hrs by MTT assay relative to control; type: cell-based; details: read-out: Activity
[6] = biological target: Amyloid-beta precursor protein (Homo sapiens) (UniProt P05067); assay: Inhibition of self-induced amyloid beta (1 to 42) (unknown origin) aggregation at 5 uM measured after 24 hrs by ThT fluorescence assay relative to control

Cholinesterase, sequence (P81908 whole entry): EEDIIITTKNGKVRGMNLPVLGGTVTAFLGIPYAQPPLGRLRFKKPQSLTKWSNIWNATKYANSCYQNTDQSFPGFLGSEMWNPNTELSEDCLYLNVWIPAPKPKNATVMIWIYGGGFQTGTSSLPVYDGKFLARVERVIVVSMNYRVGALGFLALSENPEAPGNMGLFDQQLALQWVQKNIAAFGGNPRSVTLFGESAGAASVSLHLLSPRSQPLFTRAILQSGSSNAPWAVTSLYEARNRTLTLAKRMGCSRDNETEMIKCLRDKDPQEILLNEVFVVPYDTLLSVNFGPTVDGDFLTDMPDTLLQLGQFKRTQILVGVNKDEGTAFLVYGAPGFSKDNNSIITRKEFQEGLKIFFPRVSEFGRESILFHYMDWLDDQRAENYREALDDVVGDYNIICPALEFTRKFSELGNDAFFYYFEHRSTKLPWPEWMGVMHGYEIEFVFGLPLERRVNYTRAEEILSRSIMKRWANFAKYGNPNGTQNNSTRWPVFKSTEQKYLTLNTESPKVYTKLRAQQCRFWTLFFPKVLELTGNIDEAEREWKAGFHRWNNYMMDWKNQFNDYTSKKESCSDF
Amyloid-beta precursor protein (Homo sapiens), sequence (P05067 whole entry): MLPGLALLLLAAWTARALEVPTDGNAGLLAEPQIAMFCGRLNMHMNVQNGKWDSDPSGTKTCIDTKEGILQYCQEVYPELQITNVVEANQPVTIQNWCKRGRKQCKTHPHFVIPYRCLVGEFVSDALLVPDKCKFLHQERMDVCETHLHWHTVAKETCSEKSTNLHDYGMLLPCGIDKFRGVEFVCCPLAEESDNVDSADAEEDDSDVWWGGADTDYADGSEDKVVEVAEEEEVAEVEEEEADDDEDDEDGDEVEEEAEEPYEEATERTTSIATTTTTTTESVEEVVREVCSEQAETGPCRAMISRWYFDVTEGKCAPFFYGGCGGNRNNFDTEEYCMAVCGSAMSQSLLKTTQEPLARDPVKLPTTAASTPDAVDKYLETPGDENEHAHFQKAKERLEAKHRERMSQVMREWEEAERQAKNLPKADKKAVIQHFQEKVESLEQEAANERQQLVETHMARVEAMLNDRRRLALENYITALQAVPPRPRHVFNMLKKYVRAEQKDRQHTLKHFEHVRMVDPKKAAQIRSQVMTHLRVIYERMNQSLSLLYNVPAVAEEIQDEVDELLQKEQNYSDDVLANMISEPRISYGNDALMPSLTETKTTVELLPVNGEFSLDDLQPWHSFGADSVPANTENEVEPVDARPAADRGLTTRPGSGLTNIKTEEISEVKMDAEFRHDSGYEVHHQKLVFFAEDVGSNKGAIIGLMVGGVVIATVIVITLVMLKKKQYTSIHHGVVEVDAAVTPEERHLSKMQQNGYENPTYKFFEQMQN
Acetylcholinesterase, sequence (O42275 whole entry): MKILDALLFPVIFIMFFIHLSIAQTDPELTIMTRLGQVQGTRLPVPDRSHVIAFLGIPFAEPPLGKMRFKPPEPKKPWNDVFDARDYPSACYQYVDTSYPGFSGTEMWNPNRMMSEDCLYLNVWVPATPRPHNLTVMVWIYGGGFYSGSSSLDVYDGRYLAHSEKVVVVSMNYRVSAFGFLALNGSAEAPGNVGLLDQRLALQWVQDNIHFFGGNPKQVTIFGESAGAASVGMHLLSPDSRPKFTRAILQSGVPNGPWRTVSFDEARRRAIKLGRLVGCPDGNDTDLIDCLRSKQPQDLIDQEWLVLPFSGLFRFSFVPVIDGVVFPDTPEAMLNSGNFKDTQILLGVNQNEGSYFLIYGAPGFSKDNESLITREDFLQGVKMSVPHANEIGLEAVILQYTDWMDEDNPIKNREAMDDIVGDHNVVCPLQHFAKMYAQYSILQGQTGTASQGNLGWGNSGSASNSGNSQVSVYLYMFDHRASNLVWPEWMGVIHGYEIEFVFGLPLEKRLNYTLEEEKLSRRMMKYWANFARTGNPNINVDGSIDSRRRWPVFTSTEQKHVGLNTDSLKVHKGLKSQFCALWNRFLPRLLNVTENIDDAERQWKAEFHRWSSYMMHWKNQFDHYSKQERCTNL

Compound | IC50 (Acetylcholinesterase) [µM] | IC50 (Cholinesterase) [µM] | further results
O=C(NCCCCNc1c2c(nc3ccccc13)CCCC2)c1cnc(Cl)c(Cl)c1 | 0.00165 | 0.0414 | –
O=C(NCCCCCCCNc1c2c(nc3ccccc13)CCCC2)c1cnc(Cl)c(Cl)c1 | 0.0123 | 0.0114 | –
Cl.O=C(NCCCNc1c2c(nc3ccccc13)CCCC2)c1cnc(Cl)c(Cl)c1 | 0.00102 | 0.16 | selectivity ratio (BuChE (equine serum)): 13; inhibition [1]: 26.6%; inhibition [2]: 31.1%; inhibition [3]: 46.6%; viability at 48 h, 0.9 µM [4]: 82.3%; IC50 (A549): 2 µM; IC50 (Hyaluronidase): 465.75 µM; selectivity ratio (AChE (electric eel)): 1960; viability at 48 h, 2.3 µM [5]: 46%; inhibition [6]: 19.4%
O=C(NCCCCCNc1c2c(nc3ccccc13)CCCC2)c1cnc(Cl)c(Cl)c1 | 0.0029 | 0.0135 | –
O=C(NCCNc1c2c(nc3ccccc13)CCCC2)c1cnc(Cl)c(Cl)c1 | 0.0167 | 0.726 | –
O=C(NCCCCCCNc1c2c(nc3ccccc13)CCCC2)c1cnc(Cl)c(Cl)c1 | 0.0042 | 0.0129 | –
O=C(NCCCCCCCCNc1c2c(nc3ccccc13)CCCC2)c1cnc(Cl)c(Cl)c1 | 0.0103 | 0.0107 | –
O=C(NCCCCCCCCCNc1c2c(nc3ccccc13)CCCC2)c1cnc(Cl)c(Cl)c1 | 0.00312 | 0.00333 | –
